The values below come from doi:10.1101/2024.06.10.598330v1 (biorxiv, 2024).

Each structure is given as a SMILES string.

For one experiment, the system named is Vv4g02123. Conditions: 20 μM SAM, pH 8.0, 37 °C; substrate inhibition fit.
Experiment [1] has as its system 'Concord' ortholog of 4g02123. Nature of the experiment: MTase-Glo luminescence methyltransferase assay. The format is biochemical, Vitis labrusca. Conditions: 20 μM SAM, pH 8.0, 37 °C.
A further experiment has as its target T1, Vv4g02169 (Vitis vinifera, UniProt D7SNV7).
T1 sequence (D7SNV7 1-364): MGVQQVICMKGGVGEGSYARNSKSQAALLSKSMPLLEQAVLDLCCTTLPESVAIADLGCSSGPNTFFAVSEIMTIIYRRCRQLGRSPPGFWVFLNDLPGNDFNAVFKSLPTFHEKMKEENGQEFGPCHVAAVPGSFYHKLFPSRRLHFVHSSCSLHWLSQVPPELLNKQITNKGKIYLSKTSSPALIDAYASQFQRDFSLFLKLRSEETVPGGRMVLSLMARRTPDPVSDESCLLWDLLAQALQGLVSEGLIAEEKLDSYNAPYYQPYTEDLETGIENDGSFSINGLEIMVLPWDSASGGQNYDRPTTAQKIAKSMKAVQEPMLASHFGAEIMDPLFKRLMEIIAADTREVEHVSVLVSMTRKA
As to the kind of experiment: MTase-Glo luminescence methyltransferase assay. The format is biochemical. Conditions: 150 μM SAM, pH 8.0, 37 °C.

For the compound `CNc1ccccc1C(=O)O` [N-methyl AA], the Km with Vv4g02123 amounted to 12 µM; in experiment [1], 120 µM.

For `O=C(O)c1ccccc1O` [salicylic acid], in experiment [1] (substrate inhibition fit), the Km is 3.8 µM.

As for `Nc1ccccc1C(=O)O` [anthranilate], the Michaelis-Menten constant (Km) on Vv4g02169 stood at 160 µM; in experiment [1], 47 µM.

With `O=C(O)c1ccccc1` [benzoic acid], the Km in experiment [1] came out at 23 µM.

The Km is the concentration of substrate that gives half-maximal velocity.
